System: PBS pH 7.4 stability, LC-MS/MS, 48 h
Test: Inhibitors of Human alpha-Glucosidase: PBS Stability Profiling
Details: at 20 µM; hits give high values
From the text: Alpha-glucosidase is responsible for the hydrolysis of terminal, non-reducing 1,4-linked alpha-D-glucose residues, which releases alpha-D-glucose. It is a lysosomal hydrolase that is required for the degradation of a small percentage (1-3%) of cellular glycogen in humans. Deficiency of this enzyme results in glycogen-storage disease type II (GSDII), also referred to as Pompe disease, an autosomal recessive disorder. Structurally normal glycogen is accumulated in the lysosomes and cytoplasm in affected patients, primarily in muscle tissues. Excessive glycogen storage within lysosomes may interrupt normal functioning of other organelles and leads to cellular injury. In turn, this leads to enlargement and dysfunction of the entire organ involved (eg: cardiomyopathy and muscle weakness). The stability of the lead compound in PBS buffer is tested because this parameter has a significant impact on many ADME-concerned properties of drugs, such as uptake, distribution, transport, and eventually bioavailability. NIH Chemical Genomics Center [NCGC] NIH Molecular Libraries Probe Production Centers Network [MLPCN] […]
20uM of compound is incubated in PBS buffer at pH 7.4 at […]; the reference compound is procaine. Compounds are incubated at 37 deg C for the pre-determined time periods and the when aliquots are removed. Samples are analyzed with LC-MS/MS.

CC(=O)c1ccc(N2CCN(S(=O)(=O)c3ccc4c(c3)CC(=O)N4)CC2)cc1 showed a percent remaining of 100%.
